In patent US6960458B2, “Erythrose reductase, its cDNA and cell which the cDNA express” (Director of National Food Research Institute, Ministry of …, priority 2001, dated 2005):

B1: purified recombinant erythrose reductase type II: recombinant enzyme of SEQ. ID No. 4 expressed in E. coli, histidine Tag cleaved (protein)
chain: MSYKQYIPLNDGNKIPALGFGTWQAEPGQVGASVKNAVKAGYRHLDLAKVYQNQSEIGVALQELFDQGIVKREDLFITSKVWNNRHAPEHVEPALDETLKELGLSYLDLYLIHWPVAFKFTTPQELFPTEPDNKELAAIDDSIKLVDTWKAVVALKKTGKTKSVGVSNFTTDLVDLVEKASGERPAVNQIEAHPLLQQDELVAHHKSKNIVITAYSPLGNNVSGKPPLTQNPGIEATAKRLNHTPAAVLLAWGIQRGYSVLVKSVTPSRIESNYDQITLSPEEFQKVTDLIKEYGESRNNIPLNYKPSWPISVFGTSDEAKATHKINTNL
B2: purified recombinant erythrose reductase type III: recombinant enzyme of SEQ. ID No. 2 expressed in E. coli, histidine Tag cleaved (protein)
chain: B1 chain
B3: purified recombinant erythrose reductase type I: recombinant enzyme of SEQ. ID No. 6 expressed in E. coli, histidine Tag cleaved (protein)
chain: MSYNKNIPLNDGNSIPALGYGTWQAEPGQVGEGVKLAVKAGYRHLDLAKVYQNQTEIGQALKELFDEGVVKREDLFITSKLWNNRHAPEHVEPALDETLKELGLSYLDLYLIHWPVAFKFTTPDELLPADPTNKDLAYIDDSVKLSDTWKAVVALKKTGKTKSVGVSNFSTRLVDLVEEASGERPAVNQIEAHPLLQQDELVAHHKSKNIVITAYSPLGNNVAGKPPLTENPGIVDAAKRLNHTPAAVLIAWGIQRGYSVLVKSVTPSRIKSNFEQITLSDEEFQRVTNLIKEYGESRNNVPFNYKPSWSIDVFGTQYEAKATHKINA

Legend:
[1] = tested on: recombinant erythrose reductase type I; test: Substrate specificity of purified recombinant erythrose reductase type I, NADPH consumption at 340 nm; assay type: biochemical, Trichosporonoides megachiliensis; details: rate with D-erythrose = 100%; 12 mM substrate, 0.2 mM NADPH, 50 mM phosphate buffer pH 6.5, 37° C., 5 minutes
Procedure: (§1) The substrate specificities of the purified recombinant erythrose reductases type III, type II, and type I were compared with that of the erythrose reductase heretofore reported (natural type: H. Ishizuka et al., Biosci. Biotech. Biochem., 56(6), 941-945, 1992).
(§2) In the presence of 50 mM of a phosphate buffer at pH 6.5, 12 mM of a substrate, and 0.2 mM of NADPH, 20 μL of an enzyme was acted (1 mL in total), and a change with time in optical absorbance at 340 nm was measured at 37° C. for 5 minutes.
(§3) With the reaction rate at which erythrose is reduced as a substrate as being 100%, relative values (%) of reaction rates for reducing various ketoses and aldoses are shown in Table 1.

[2] = tested on: recombinant erythrose reductase type II; test: Substrate specificity of purified recombinant erythrose reductase type II, NADPH consumption at 340 nm; assay type: biochemical, Trichosporonoides megachiliensis; details: rate with D-erythrose = 100%; 12 mM substrate, 0.2 mM NADPH, 50 mM phosphate buffer pH 6.5, 37° C., 5 minutes
Procedure: as §1, §2, §3

[3] = tested on: recombinant erythrose reductase type III; test: Substrate specificity of purified recombinant erythrose reductase type III, NADPH consumption at 340 nm; assay type: biochemical, Trichosporonoides megachiliensis; details: rate with D-erythrose = 100%; 12 mM substrate, 0.2 mM NADPH, 50 mM phosphate buffer pH 6.5, 37° C., 5 minutes
Procedure: as §1, §2, §3

[4] = tested on: natural type erythrose reductase type III; details: rate with D-erythrose = 100%; 12 mM substrate, 0.2 mM NADPH, 50 mM phosphate buffer pH 6.5, 37° C.; reported natural type (Ishizuka et al. 1992); cited from earlier work
[5] = IEF-PAGE (isoelectric focusing) of purified recombinant erythrose reductases; assay type: physicochemical; details: Phast Gel IEF pH 4-6.5, from mobility of band
Procedure: On the purified recombinant erythrose reductases, IEF-PAGE was carried out with a fully automatic electrophoresis system called Phast System (produced by Amersham Pharmacia Biotech), using a gel (trade name: Phast Gel (IEF pH 4-6.5), manufacturer: Amersham Pharmacia Biotech).
Electrophoresis was conducted using a pH gradient gel, and the separated proteins were stained.
From FIG. 9, the isoelectric point of each enzyme could be confirmed from the mobility of a band.

Row | Molecule | Relative value (%) of reaction rate, Recombinant type Type I [1] | Relative value (%) of reaction rate, Recombinant type Type II [2] | Relative value (%) of reaction rate, Recombinant type Type III [3] | Relative value (%) of reaction rate, Normal type Type III [4] | isoelectric point (pI) [5]
1 | O=C[C@@H](O)[C@H](O)[C@H](O)CO [D-arabinose] | 0.9% | 0.0% | 0.0% | 0.0% | –
2 | O=C[C@@H](O)[C@@H](O)[C@H](O)[C@H](O)CO [D-mannose] | 0.0% | 0.0% | 0.0% | 0.0% | –
3 | O=Cc1ccc([N+](=O)[O-])cc1 [p-nitrobenzaldehyde] | 11.5% | 8.8% | 66.3% | 46.0% | –
4 | O=C[C@H](O)CO [D-glyceraldehyde] | 102.0% | 107.8% | 98.2% | 66.0% | –
5 | O=C(CO)[C@@H](O)[C@H](O)[C@@H](O)CO [L-sorbose] | 0.0% | 0.0% | 0.0% | 0.0% | –
6 | O=C[C@H](O)[C@H](O)CO [D-erythrose] | 100.0% | 100.0% | 100.0% | 100.0% | –
7 | O=C(CO)[C@@H](O)[C@H](O)[C@H](O)CO [D-fructose] | 0.0% | 0.0% | 0.0% | 0.0% | –
8 | O=C(CO)[C@@H](O)[C@H](O)CO [D-xylulose] | 7.5% | 3.5% | 7.8% | 0.0% | –
9 | O=C[C@H](O)[C@@H](O)[C@H](O)CO [D-xylose] | 3.2% | 2.4% | 4.5% | 1.2% | –
10 | O=C[C@H](O)[C@@H](O)[C@H](O)[C@H](O)C(=O)O [D-glucuronate] | 0.7% | 0.0% | 0.8% | 6.6% | –
11 | OC[C@H]1O[C@H](O[C@H]2O[C@H](CO)[C@@H](O)[C@H](O)[C@H]2O)[C@H](O)[C@@H](O)[C@@H]1O [Trehalose] | 0.0% | 0.0% | 0.0% | 0.0% | –
12 | O=C[C@H](O)[C@H](O)[C@H](O)CO [D-ribose] | 1.0% | 0.7% | 2.3% | 1.2% | –
13 | O=C(CO)[C@@H](O)CO [L-erythrulose] | – | – | – | 38.0% | –
14 | O=C[C@H](O)[C@@H](O)[C@H](O)[C@H](O)CO [D-glucose] | 0.0% | 0.0% | 0.0% | 0.0% | –
15 | O=C[C@H](O)[C@@H](O)[C@@H](O)[C@H](O)CO [D-galactose] | 0.0% | 0.0% | 0.0% | 0.0% | –
16 | B1 | – | – | – | – | 5.3
17 | B2 | – | – | – | – | 5.8
18 | B3 | – | – | – | – | 4.7
